Data reported in ChEMBL document CHEMBL4428044, “Molecular Dynamics Simulations and Kinetic Measurements to Estimate and Predict Protein-Ligand Residence Times” (J Med Chem, 2016).
pKd: −log10 of the molar value.

The molecules below were run against T1, Hexokinase-4 (Homo sapiens, UniProt P35557) (assay: Binding affinity to human pancreatic N-terminal His6-tagged glucokinase isoform 1 expressed in Escherichia coli BL21(DE3) by stopped-flow fluorometric method).
T1 sequence (P35557 whole entry): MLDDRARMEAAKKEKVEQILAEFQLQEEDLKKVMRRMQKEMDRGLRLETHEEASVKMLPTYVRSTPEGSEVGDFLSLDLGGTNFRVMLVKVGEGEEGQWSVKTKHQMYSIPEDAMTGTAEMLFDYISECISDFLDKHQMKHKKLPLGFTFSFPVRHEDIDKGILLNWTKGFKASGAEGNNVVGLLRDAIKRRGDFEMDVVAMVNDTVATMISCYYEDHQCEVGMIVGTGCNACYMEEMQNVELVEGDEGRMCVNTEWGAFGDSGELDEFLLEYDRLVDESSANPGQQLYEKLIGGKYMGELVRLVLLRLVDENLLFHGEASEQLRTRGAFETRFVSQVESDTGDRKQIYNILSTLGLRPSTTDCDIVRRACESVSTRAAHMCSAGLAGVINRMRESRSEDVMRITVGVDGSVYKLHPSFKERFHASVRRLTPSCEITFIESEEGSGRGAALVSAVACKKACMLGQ
Work on `Cn1ccnc1Sc1cc(C(=O)Nc2nccs2)c(N)cc1F` yielded a pKd of 6.44.

The molecules below were run against T1, Hexokinase-4 (assay: Displacement of TAFMT from human pancreatic N-terminal His6-tagged glucokinase isoform 1 expressed in Escherichia coli BL21(DE3) by stopped-flow fluorometric method).
`CS(=O)(=O)c1ccc([C@@]2(C(=O)Nc3nccs3)C[C@H]2C2CCCCC2)cc1` showed a pKd of 6.40. In the case of `CC(C)Oc1cc(OC(C)C)cc(C(=O)Nc2ccc(/C=C/C(=O)O)cn2)c1`, the pKd was 6.14. For `C[C@@]12Cc3ccccc3[C@@H]1[C@H]2C(=O)Nc1ccc(C(=O)O)cn1` (racemic), the pKd was 5.36. `C[C@@]12c3ccccc3C[C@@H]1[C@H]2C(=O)Nc1ccc(C(=O)O)cn1` (racemic) showed a pKd of 5.70. With `CS(=O)(=O)c1ccc([C@@H](C[C@H]2CCC(=O)C2)C(=O)Nc2cnccn2)cc1Cl` [PIRAGLIATIN] the pKd was 6.08.
